The test system of the experiment is rice blast fungi (Pyricularia oryze). The experiment is described as follows: whole plant or invertebrate. The class given is in vivo. The note with it: 144 h, read-out: protective value.

For the compound `O=C(Nc1ccc(Oc2ccccc2)cc1)c1ncccc1O` [Example 1, 3-Hydroxy-4′-phenoxypicolinanilide], the pest or weed control at 100 ppm is 80 to 100%. Take `COc1ccnc(C(=O)Nc2ccc(Oc3ccccc3)cc2)c1O` [Example 9, 3-Hydroxy-4-methoxy-4′-phenoxypicolinanilide]: the pest or weed control at 100 ppm is 80 to 100%. Take `COc1ccnc(C(=O)Nc2cccc(Oc3ccccc3)c2)c1O` [Example 11, 3-Hydroxy-4-methoxy-3′-phenoxypicolinanilide]: the pest or weed control at 100 ppm is 80 to 100%.

Take `COc1ccnc(C(=O)Nc2ccccc2Oc2ccccc2)c1O` [Example 12, 3-Hydroxy-4-methoxy-2′-phenoxypicolinanilide]: the pest or weed control at 100 ppm lay within 80 to 100%.

`COc1ccnc(C(=O)Nc2ccc(Cc3ccccc3)cc2)c1O` [Example 13, 3-Hydroxy-4-methoxy-4′-benzylpicolinanilide]: the pest or weed control at 100 ppm fell in the range of 80 to 100%. For `COc1ccnc(C(=O)Nc2ccc(Oc3ccccc3)c(Cl)c2)c1O` [Example 21, 3-Hydroxy-4-methoxy-3′-chloro-4′-phenoxypicolinanilide] the value was 80 to 100%; for `COc1ccnc(C(=O)Nc2ccc(Oc3ccccc3)c(C(F)(F)F)c2)c1O` [Example 22, 3-Hydroxy-4-methoxy-4′-phenoxy-3′-trifluoromethylpicolinanilide], 80 to 100%. Consider `COc1ccnc(C(=O)Nc2ccc(Oc3ccccc3)c(C)c2)c1O` [Example 23, 3-Hydroxy-4-methoxy-3′-methyl-4′-phenoxypicolinanilide], for which the pest or weed control at 100 ppm lay within 80 to 100%. On to `COc1ccnc(C(=O)NC(C)c2cccc3ccccc23)c1O` (stereo not shown) [Example 30, 3-Hydroxy-4-methoxy-N-(1′-(1-naphthyl)ethyl)picolinamide], for which the pest or weed control at 100 ppm is 80 to 100%. Take `COc1ccnc(C(=O)Nc2cc(C(C)(C)C)cc(C(C)(C)C)c2)c1O` [Example 38, 3-Hydroxy-4-methoxy-3′,5′-di-t-butylpicolinanilide]: the pest or weed control at 100 ppm was in the range of 80 to 100%. Regarding `COc1ccnc(C(=O)Nc2ccc(OCc3ccccc3)cc2)c1O` [Example 39, 3-Hydroxy-4-methoxy-4′-benzyloxypicolinanilide], the pest or weed control at 100 ppm was 80 to 100%.

As to `COc1ccnc(C(=O)NC2CCCCCCCCCCC2)c1O` [Example 42, 3-Hydroxy-4-methoxy-N-cyclododecylpicolinamide], the pest or weed control at 100 ppm is 80 to 100%.

Consider `COc1ccnc(C(=O)NC2CCCCCCC2)c1O` [Example 43, 3-Hydroxy-4-methoxy-N-cyclooctylpicolinamide], for which the pest or weed control at 100 ppm was in the range of 80 to 100%. With `COc1ccnc(C(=O)NC23CC4CC(CC(C4)C2)C3)c1O` [Example 45, 3-Hydroxy-4-methoxy-N-(1-adamantyl)picolinamide], the pest or weed control at 100 ppm was 80 to 100%. Regarding `COc1ccnc(C(=O)Nc2ccc(C3CCCCC3)cc2)c1O` [Example 49, 3-Hydroxy-4-methoxy-4′-cyclohexylpicolinanilide], the pest or weed control at 100 ppm was in the range of 80 to 100%. Then `COc1ccnc(C(=O)Nc2ccc3c(c2)OCCO3)c1O` [Example 51, 3-Hydroxy-4-methoxy-(3′,4′-ethylenedioxy)picolinanilide], with 80 to 100%; and `COc1ccnc(C(=O)NCCC2=CCCCC2)c1O` [Example 53, 3-Hydroxy-4-methoxy-N-(2′-(1-cyclohexenyl)ethyl)picolinamide], with 80 to 100%.

On to `COc1ccnc(C(=O)Nc2c(C)cc(Oc3ccccc3)cc2C)c1O` [Example 55, 3-Hydroxy-4-methoxy-2′,6′-dimethyl-4′-phenoxypicolinanilide], for which the pest or weed control at 100 ppm was in the range of 80 to 100%. `COc1ccnc(C(=O)NC2CCCCCC2)c1O` [Example 57, 3-Hydroxy-4-methoxy-N-cycloheptylpicolinamide]: the pest or weed control at 100 ppm was in the range of 80 to 100%. With `COc1ccnc(C(=O)NC2CCCCC2)c1O` [Example 59, 3-Hydroxy-4-methoxy-N-cyclohexylpicolinamide], the pest or weed control at 100 ppm lay in the range of 80 to 100%.

Turning to `COc1ccnc(C(=O)Nc2ccccc2)c1O` [Example 60, 3-Hydroxy-4-methoxypicolinanilide], the pest or weed control at 100 ppm fell in the range of 80 to 100%. `COc1ccnc(C(=O)Nc2ccc(Cl)cc2)c1O` [Example 61, 3-Hydroxy-4-methoxy-4′-chloropicolinanilide]: the pest or weed control at 100 ppm lay within 80 to 100%. Take `COc1ccnc(C(=O)NCCC2CCCCC2)c1O` [Example 63, 3-Hydroxy-4-methoxy-N-(2′-cyclohexylethyl)picolinamide]: the pest or weed control at 100 ppm lay in the range of 80 to 100%. With `COc1ccnc(C(=O)NC(C)c2ccccc2)c1O` (stereo not shown) [Example 69, 3-Hydroxy-4-methoxy-N-(1′-phenylethyl)picolinamide], the pest or weed control at 100 ppm fell in the range of 80 to 100%. For `COc1ccnc(C(=O)NC(C)(C)c2ccccc2)c1O` [Example 70, 3-Hydroxy-4-methoxy-N-(1′-methyl-1′-phenylethyl)picolinamide], the pest or weed control at 100 ppm was in the range of 80 to 100%.

As to `COc1ccnc(C(=O)NCc2ccc(Oc3ccccc3)cc2)c1O` [Example 71, 3-Hydroxy-4-methoxy-N-(4′-phenoxybenzyl)picolinamide], the pest or weed control at 100 ppm fell in the range of 80 to 100%.

Regarding `COc1ccnc(C(=O)NCC2CCCCC2)c1O` [Example 75, 3-Hydroxy-4-methoxy-N-(cyclohexylmethyl)picolinamide], the pest or weed control at 100 ppm lay within 80 to 100%.

Take `COc1ccnc(C(=O)NC2CCC(C)CC2)c1O` (stereo not shown) [Example 78, 3-Hydroxy-4-methoxy-N-(4′-methylcyclohexyl)picolinamide]: the pest or weed control at 100 ppm fell in the range of 80 to 100%. For the compound `COc1ccnc(C(=O)NC2CCCC2)c1O` [Example 79, 3-Hydroxy-4-methoxy-N-cyclopentylpicolinamide], the pest or weed control at 100 ppm was 80 to 100%.

Regarding `COc1ccnc(C(=O)NC2CCC2)c1O` [Example 81, 3-Hydroxy-4-methoxy-N-cyclobutylpicolinamide], the pest or weed control at 100 ppm lay within 80 to 100%.

Take `CCC(C)NC(=O)c1nccc(OC)c1O` (stereo not shown) [Example 82, 3-Hydroxy-4-methoxy-N-(sec-butyl)picolinamide]: the pest or weed control at 100 ppm fell in the range of 80 to 100%. Take `CCCCCCNC(=O)c1nccc(OC)c1O` [Example 83, 3-Hydroxy-4-methoxy-N-(n-hexyl)picolinamide]: the pest or weed control at 100 ppm was 80 to 100%. Turning to `CCCCCCCCNC(=O)c1nccc(OC)c1O` [Example 86, 3-Hydroxy-4-methoxy-N-(n-octyl)picolinamide], the pest or weed control at 100 ppm lay within 80 to 100%.

As to `COc1ccnc(C(=O)NCCC(C)(C)C)c1O` [Example 88, 3-Hydroxy-4-methoxy-N-(3′,3′-dimethylbutyl)picolinamide], the pest or weed control at 100 ppm fell in the range of 80 to 100%.

On to `COc1ccnc(C(=O)Nc2ccc(C(C)(C)C)cc2)c1O` [Example 114, 3-Hydroxy-4-methoxy-4′-t-butylpicolinanilide], for which the pest or weed control at 100 ppm is 80 to 100%. For `COc1ccnc(C(=O)Nc2ccc(C(F)(F)F)cc2)c1O` [Example 115, 3-Hydroxy-4-methoxy-4′-trifluoromethylpicolinanilide] the value was 80 to 100%; for `COc1ccnc(C(=O)Nc2ccc(OC(F)(F)F)cc2)c1O` [Example 116, 3-Hydroxy-4-methoxy-4′-trifluoromethoxypicolinanilide], 80 to 100%. In the case of `COc1ccnc(C(=O)Nc2ccc(F)cc2)c1O` [Example 120, 3-Hydroxy-4-methoxy-4′-fluoropicolinanilide], the pest or weed control at 100 ppm lay within 80 to 100%.

`COc1ccnc(C(=O)Nc2ccc(C)cc2F)c1O` [Example 121, 3-Hydroxy-4-methoxy-2′-fluoro-4′-methylpicolin-anilide]: the pest or weed control at 100 ppm lay in the range of 80 to 100%. As for `COc1ccnc(C(=O)Nc2cc(F)cc(F)c2)c1O` [Example 122, 3-Hydroxy-4-methoxy-3′,5′-difluoropicolinanilide], the pest or weed control at 100 ppm lay within 80 to 100%. Take `COc1ccnc(C(=O)Nc2ccc(C)cc2)c1O` [Example 123, 3-Hydroxy-4-methoxy-4′-methylpicolinanilide]: the pest or weed control at 100 ppm lay within 80 to 100%. As to `COc1ccnc(C(=O)Nc2ccc(CC(C)(C)C)cc2)c1O` [Example 125, 3-Hydroxy-4-methoxy-4′-neopentylpicolinanilide], the pest or weed control at 100 ppm was 80 to 100%. On to `COc1ccnc(C(=O)Nc2ccccn2)c1O` [Example 126, 3-Hydroxy-4-methoxy-N-(2-pyridyl)picolinamide], for which the pest or weed control at 100 ppm lay in the range of 80 to 100%.

(Values after patent publication US7183278B1 (priority 1998, dated 2007).)
